One series deals with T1, CDK2 (Homo sapiens, UniProt P24941).
T1 construct: purchased Carna 04-103
Kind of series: CDK2 activity inhibition experiment (Caliper mobility shift assay). Format: biochemical. Particulars: enzyme activity inhibition; read-out: CDK2 IC50 class. As to the method:
After being incubated at 28° C. for 60 minutes, 25 μl of stop solution was added to stop the reaction. Conversion rate data was read from Caliper EZ Reader II (Caliper Life Sciences). The conversion rate data was converted into inhibition rate data. […] The curve was plotted with compound concentration and inhibition rate as horizontal and vertical coordinates, and the IC50 was calculated by fitting the curve using XLFit excel add-in version 4.3.1 software. Inhibition rate %=(max-conversion rate)/(max-min)×100.

A further series concerns MDA-MB-231. Kind of series: Tumor cell proliferation inhibition (CellTiter-Glo), MDA-MB-231. The class given is cell-based. Particulars: Homo sapiens, 72 hours, 10% fetal bovine serum, read-out: MDA-MB-231 IC50 class. The method, then:
(§1) The content of adenosine triphosphate (ATP) was determined using the CellTiter-Glo Luminescent Cell Viability Assay Kit (Promega, Madison, Wis.) to evaluate cell viability. Tumor cell lines (SW620, ZR-75-1, MDA-MB-231) were purchased from the Cell Resource Center of IBS, Fudan University, Shanghai and the American Type Culture Collection (ATCC). The cell density was determined using Scepter automated cell counter (Millipore # PHCC00000) after the cells were digested with pancreatin in cell culture dishes and resuspended in DPBS medium. The cells were diluted to a solution of 44,000 cells per ml. The cell solution of which density was adjusted was added into the cell assay plate at 90 microliters per well. The well plate was incubated in an incubator with 5% CO2 at 37° C. for 24 hours and then added with test compounds with different concentrations. The cells were incubated with the compounds in the presence of 10% fetal bovine serum for 72 hours. ATP content was assayed using the CellTiter-Glo® Luminescent Cell Viability Assay kit (see instructions of manufacturer) to assess cell growth inhibition. Briefly, 30 μl of CellTiter-Glo® reagent was added to each well, rocked for 10 minutes to induce cell lysis, and […] were detected and recorded with Fluoroskan Ascent FL (Thermo). The maximum signal value was obtained from the cells treated with dimethyl sulfoxide for 72 hours. The minimum signal value was obtained from the separate culture medium (cell number was zero). Inhibition rate %=(maximum signal value−compound signal value)/(maximum signal value−minimum signal value)×100. Data was processed using GraphPad Prism V5.0 (GraphPad Software, San Diego, Calif.) software. IC50 values were calculated by fitting S-shaped dose-response curves.

The target in series [1] is T2, CDK4 (GST-CDK4(1-303end)/GST-CycD3(1-292end)) (Homo sapiens, UniProt P11802).
T2 construct: GST-CDK4(1-303end); purchased Carna 04-105
The experiment in a line: CDK4 activity inhibition experiment (Caliper mobility shift assay). Format: biochemical. Particulars: enzyme activity inhibition; read-out: CDK4 IC50 class.

Series [2] concerns the target T3, CDK6 (GST-CDK6(1-326end)) (Homo sapiens, UniProt Q00534).
T3 construct: GST-CDK6(1-326end); purchased Carna 04-107
The experiment in a line: CDK6 activity inhibition experiment (Caliper mobility shift assay). Format: biochemical. Particulars: enzyme activity inhibition; read-out: CDK6 IC50 class. As to the method:
The activity of CDK6 protein kinase was measured using Caliper mobility shift assay (see J. Biomol Screen 14:31, 2009). […] 10 μl of the 2.5 times diluted CDK6 enzyme solution (GST-CDK6(1-326end); Carna, Cat. No 04-107) was added and then incubated at room temperature for 10 minutes, then 10 μl of the 2.5 times diluted substrate solution Peptide FAM-P8 (GL Biochem, Cat. No. 112396) was added. After being incubated at 28° C. for 40 minutes, 25 μl of stop solution was added to stop the reaction. Conversion rate data was read from Caliper EZ Reader II (Caliper Life Sciences). The conversion rate data was converted into inhibition rate data. […] Conversion rate data was converted into inhibition rate data according to the method described above. Inhibition rate %=(max−conversion rate)/(max−min)×100.

Series [3] concerns MDA-MB-231 breast cancer cells. The experiment in a line: Cell cycle inhibition experiment (PI staining, flow cytometry). The class given is cell-based. Particulars: Homo sapiens, MDA-MB-231 cells, 24 h. The text has this:
The cell cycle and apoptosis assay kit (Beyotime, C1052) used in this experiment is an assay kit for analyzing the cell cycle and apoptosis using the classic method of Propidium staining (PI staining). Propidium (PI) is a double-stranded DNA fluorescent dye. The combination of propidium and double-stranded DNA can produce fluorescence, and fluorescence intensity is proportional to the amount of double-stranded DNA. After DNA in cells is stained with propidium, the DNA content of the cells can be measured by flow cytometry, and then the cell cycle and apoptosis can be analyzed according to the distribution of DNA content.
MDA-MB-231 cells were seeded into a 6-well plate at 3×10^5 per well and cultured for 24 hours.
In tumor cell cycle, the binding of CDK4 and CDK6 to cyclin D promotes G1 phase into S phase. CDK4/6 inhibitor selectively arrests the G1 phase of tumor cells into S phase. The detection results of the cell cycle of MDA-MB-231 breast cancer cells by flow cytometry indicate that the CDK4/6 inhibitor compounds provided by the present disclosure stop the growth of G1 phase cells and reduce S phase cells in a concentration-dependent manner, as shown in the following table.
A general note: Flow cytometry measures light scatter and fluorescence of single cells or particles in a stream.

In series [4] the test system is phosphorylation of Rb at Ser780 in MDA-MB-231 breast cancer cells. Kind of series: Western Blot experiment, Rb phosphorylation. Format: cell-based. Particulars: MDA-MB-231 cells, 16 hours incubation, FIG. 1. The method, then:
MDA-MB-231 cells were grown in monolayer culture. […] The protein concentration was determined by the Branfor method. After being added with a loading buffer (Beyotime, # P0015L), the supernatant was boiled at 100° C. for 8 min, and the protein was separated by 8%-10% SDS-PAGE electrophoresis and then transferred to the PVDF membrane, and the membrane was blocked with 5% skimmed milk powder for 45 min, and then the cells were incubated overnight at 4° C. with primary antibody β-actin (CST, #4970), Rb (D20) Rabbit mAb (CST, #9313), Phospho-Rb(Ser780)(D59B7) Rabbit mAb (CST, #8180), and then the membrane was washed with TBST solution for 3×10 min. The cells were incubated in the dark at room temperature for 2 h with the fluorescent secondary antibody IRDye@680CW Goat (polyclonal) Anti-Rabbit 1gG (H+L), Highly Cross Adsorbed (LI-COR, #926-68071), and then the membrane was washed under the same condition above. Finally, the membrane was detected and imaged on a LI-COR Odyssey Infrared Fluorescence Scanning System, and the results are shown in FIG. 1.
CDK4/6 can make Rb protein lose the arrest on cell cycle by phosphorylating the tumor suppressor protein Rb protein. CDK4/6 inhibitor can prevent the inactivation of tumor suppressor protein Rb and thereby restore the arrest of Rb on cell cycle.
For orientation: Immunoblotting shows a protein as a band on a membrane.

A short description of series [5]: Pharmacokinetic (PK) experiment in rats. Format: in vivo. The following applies: male, SD, plasma, po, rat, intragastric 20 mg/kg. As to the method:
Male SD rats weighing 300-350 g were fasted overnight prior to the experiment. The compounds to be tested were dissolved in 30% sulfobutyl ether-β-cyclodextrin (SBE-β-CD) and the rats were intragastric administration at 20 mg/kg. The blood was taken from the tails of the rats at 15 min, 30 min, and 1, 2, 3, 4, 6, 8 and 24 hours after administration, with about 0.3 ml of blood at each time point, and then the blood was placed in a centrifuge tube containing K2-EDTA, and centrifuged (2,000 g, 10 min, 4° C.) to take the plasma which was then stored in an ultra-low temperature freezer at −80° C. 50 μL, of plasma sample was mixed with 5 μL of internal standard (IS) and extracted with ethyl acetate. The residue was redissolved in acetonitrile after vacuum drying. The sample was filtered and injected into LC-MS/MS for analysis to determine the concentration of the compounds to be tested.
In the table: Tmax refers to the peak time, Cmax refers to the maximum plasma drug concentration, T1/2 is the half-life, AUClast refers to the area under the 0-24 hour time-concentration curve, AUCinf refers to the area under the 0-Inf time-concentration curve.

A further series deals with ZR-75-1. Kind of series: Tumor cell proliferation inhibition (CellTiter-Glo), ZR-75-1. Format: cell-based. The following applies: Homo sapiens, 72 hours, 10% fetal bovine serum, read-out: ZR-75-1 IC50 class. The method, then: as §1
For orientation: In ATP-based viability assays light output follows the ATP content of the culture.

The subject of another series is SW620. Kind of series: Tumor cell proliferation inhibition (CellTiter-Glo), SW620. The class given is cell-based. The following applies: Homo sapiens, SW-620; 72 hours, 10% fetal bovine serum; read-out: SW620 IC50 class. The method, then: as §1

The structures appear in SMILES notation. Like-named read-outs stand apart in the source and are kept apart here.

T2 sequence (P11802 whole entry): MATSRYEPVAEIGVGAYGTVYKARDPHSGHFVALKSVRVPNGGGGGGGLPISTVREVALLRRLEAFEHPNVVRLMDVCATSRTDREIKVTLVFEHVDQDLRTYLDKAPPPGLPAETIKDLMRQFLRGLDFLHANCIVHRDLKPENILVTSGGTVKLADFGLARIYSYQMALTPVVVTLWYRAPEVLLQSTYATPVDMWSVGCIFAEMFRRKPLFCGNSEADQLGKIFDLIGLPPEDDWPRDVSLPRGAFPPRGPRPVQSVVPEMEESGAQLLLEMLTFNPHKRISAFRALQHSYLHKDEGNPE
T2 sequence (P30281 whole entry partner): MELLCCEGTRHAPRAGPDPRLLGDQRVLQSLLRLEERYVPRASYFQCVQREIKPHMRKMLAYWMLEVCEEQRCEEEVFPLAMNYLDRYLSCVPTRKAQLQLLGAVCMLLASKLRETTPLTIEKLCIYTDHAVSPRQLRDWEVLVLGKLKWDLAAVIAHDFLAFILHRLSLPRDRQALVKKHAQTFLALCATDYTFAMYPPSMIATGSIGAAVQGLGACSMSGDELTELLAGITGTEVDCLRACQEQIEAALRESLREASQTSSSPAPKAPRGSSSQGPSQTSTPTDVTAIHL
T3 sequence (Q00534 whole entry): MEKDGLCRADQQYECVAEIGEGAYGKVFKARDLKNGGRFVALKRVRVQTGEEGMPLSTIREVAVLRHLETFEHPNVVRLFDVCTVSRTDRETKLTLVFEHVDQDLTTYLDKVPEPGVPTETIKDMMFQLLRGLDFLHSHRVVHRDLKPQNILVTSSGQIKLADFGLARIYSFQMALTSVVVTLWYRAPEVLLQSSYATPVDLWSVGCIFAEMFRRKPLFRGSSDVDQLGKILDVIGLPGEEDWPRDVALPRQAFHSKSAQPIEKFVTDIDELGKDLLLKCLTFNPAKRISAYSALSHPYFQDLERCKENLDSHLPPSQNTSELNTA
T3 sequence (P30281 whole entry partner): as the sequence (P30281 whole entry partner) above

As for `CC(=O)c1c(C)c2cnc(Nc3ccc(C4CCN(CCCS(C)(=O)=O)CC4)cn3)nc2n(C2CCCC2)c1=O` [Compound 2, 6-acetyl-8-cyclopentyl-5-methyl-2-((5-(1-(3-(methylsulfonyl)propyl)piperidin-4-yl)pyridin-2-yl)amino)pyrido[2,3-d]pyrimidin-7(8H)-one], the IC50 on CDK2 is greater than 500 nM; in the series with MDA-MB-231, 100 to 500 nM; in series [1] it was less than 10 nM; in [2], 10 to 50 nM; in series [3] (read-out: IC50 (nM) G1 arrest), 39.8 nM; in series [3] (read-out: IC50 (nM) S decrease), 40.9 nM. The results for the IC50 with ZR-75-1 and in the series on SW620 were no more than 100 nM and 100 to 500 nM, respectively. Besides, the “phosphorylation of Rb at Ser780 site” value in series [4] is “effectively reduce”. Also, the Cmax in series [5] stood at 860 ng/mL. Moreover, the Tmax in [5] was 2.7 h. In [5], this molecule had a half-life of 5 h. The molecule also displayed an AUC(0-t) in series [5] (0-24 hour) of 11200 ng·h/mL. Moreover, the AUC(0-inf) in series [5] (0-Inf) came out at 11700 ng·h/mL.

By IC50 is commonly meant the concentration that gives 50% inhibition. One may read the Cmax as the peak of the concentration-time curve. What is called Tmax is the time at which the peak concentration occurs. In general, half-life refers to the time needed for the level to fall by half in the phase considered. A lower half-life goes with rapid decline. Usually AUC(0-t) stands for the area under the concentration-time curve up to a stated or last time point. Low readings indicate less exposure, high ones more exposure. By AUC(0-inf) is commonly meant the area under the concentration-time curve extrapolated to infinity.

The values above are taken from patent publication US10183941B2, “Pyrimidine or pyridopyridone compound and application thereof” (GUANGZHOU BEBETTER MEDICINE TECHNOLOGY CO., LTD., priority 2015, dated 2019).
